# Data reported in ChEMBL document CHEMBL4219095, “Synthesis and biological evaluation of 4,6-diaryl-2-pyrimidinamine derivatives as anti-breast cancer agents” (Bioorg Med Chem Lett, 2018).
# The source made the active and inactive calls. The calls are words filed in the database; no cut-off is given here.
# Columns and labels:
# MCF7 [1] = assay: Antiproliferative activity against human MCF7 cells after 48 hrs by MTT assay; assay type: functional, cell-based; conditions: MCF7, 48 h
# HUVEC = assay: Antiproliferative activity against HUVEC after 48 hrs by MTT assay; assay type: functional, cell-based; conditions: Homo sapiens
# Ishikawa [2] = assay: Antiproliferative activity against human Ishikawa cells after 48 hrs by MTT assay; assay type: functional, cell-based
# Chorioallantoic membrane = assay: Antiangiogenic activity in chicken fertilized egg chorioallantoic membrane at 1 to 20 uM measured after 72 hrs; assay type: functional, tissue-based; conditions: Gallus gallus
# MCF7 [3] = assay: Effect on PgR mRNA expression in human MCF7 cells at 1 uM by SYBR Green dye based RT-PCR analysis; assay type: functional, cell-based
# [4] = target: Vascular endothelial growth factor receptor 2 (Homo sapiens) (UniProt P35968); conditions: HUVEC, at 1 µM
# Description: Inhibition of VEGFR2 phosphorylation in HUVEC at 1 uM after 24 hrs by Western blot analysis
# Ishikawa [5] = assay: Stimulation of cell proliferation in human Ishikawa cells at 10 uM after 48 hrs by MTT assay; assay type: ADME, cell-based
# Ishikawa [6] = assay: Antiproliferative activity against human Ishikawa cells at >40 uM after 48 hrs by MTT assay; assay type: functional, cell-based
# Vascular endothelial growth factor receptor 2 (Homo sapiens), sequence (P35968 whole entry): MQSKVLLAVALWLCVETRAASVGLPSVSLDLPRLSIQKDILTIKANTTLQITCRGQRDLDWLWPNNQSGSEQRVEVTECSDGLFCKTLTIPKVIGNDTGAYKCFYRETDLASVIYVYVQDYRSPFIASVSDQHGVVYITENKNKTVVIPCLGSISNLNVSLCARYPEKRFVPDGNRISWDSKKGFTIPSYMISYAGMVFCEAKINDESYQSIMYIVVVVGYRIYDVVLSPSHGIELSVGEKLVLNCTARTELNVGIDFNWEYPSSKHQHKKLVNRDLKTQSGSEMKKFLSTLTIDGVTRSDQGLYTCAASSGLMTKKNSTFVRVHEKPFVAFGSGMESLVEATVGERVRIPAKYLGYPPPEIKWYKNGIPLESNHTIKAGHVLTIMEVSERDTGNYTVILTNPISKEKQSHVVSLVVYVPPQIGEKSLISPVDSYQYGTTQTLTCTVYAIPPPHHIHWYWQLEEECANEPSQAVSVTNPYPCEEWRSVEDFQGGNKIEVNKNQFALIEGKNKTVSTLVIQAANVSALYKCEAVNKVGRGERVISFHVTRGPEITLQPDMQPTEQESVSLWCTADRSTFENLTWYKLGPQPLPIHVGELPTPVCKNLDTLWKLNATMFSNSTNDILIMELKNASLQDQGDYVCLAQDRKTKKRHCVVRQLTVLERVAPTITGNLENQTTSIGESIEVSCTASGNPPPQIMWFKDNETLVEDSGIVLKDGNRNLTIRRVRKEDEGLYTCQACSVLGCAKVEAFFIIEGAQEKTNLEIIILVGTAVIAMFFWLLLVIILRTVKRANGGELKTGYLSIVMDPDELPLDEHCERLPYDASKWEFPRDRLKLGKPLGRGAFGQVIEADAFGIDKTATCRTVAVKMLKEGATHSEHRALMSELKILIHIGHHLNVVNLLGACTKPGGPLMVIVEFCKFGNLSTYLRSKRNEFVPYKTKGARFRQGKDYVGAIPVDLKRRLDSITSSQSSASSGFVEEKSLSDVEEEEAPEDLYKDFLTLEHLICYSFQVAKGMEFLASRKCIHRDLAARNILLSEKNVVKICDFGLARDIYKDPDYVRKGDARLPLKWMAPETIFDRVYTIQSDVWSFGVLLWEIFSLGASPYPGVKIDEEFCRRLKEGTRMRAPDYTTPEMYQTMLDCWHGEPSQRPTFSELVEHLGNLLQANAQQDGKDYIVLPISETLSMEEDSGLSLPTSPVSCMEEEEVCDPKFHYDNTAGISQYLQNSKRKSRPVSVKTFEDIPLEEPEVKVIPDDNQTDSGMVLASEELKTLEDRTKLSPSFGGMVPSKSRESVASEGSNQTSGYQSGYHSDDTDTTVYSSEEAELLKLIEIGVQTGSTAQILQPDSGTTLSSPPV
IC50 (MCF7 [1]) [µM],inhibition [4],Compound,IC50 (HUVEC) [µM],IC50 (Ishikawa [2]) [µM],Activity (Chorioallantoic membrane),Activity (MCF7 [3]),Activity (Ishikawa [5]),Activity (Ishikawa [6])
5.1,–,CCN(CC)CCOc1ccc(Nc2nc(-c3ccc(O)cc3)cc(-c3ccc(O)cc3)n2)cc1,2.5,4.8,–,–,–,–
–,–,CCN(CC)CCNC(=O)c1c(C)[nH]c(/C=C2\C(=O)Nc3ccc(F)cc32)c1C [SUNITINIB],3,–,Active,–,–,–
19.4,–,CN(C)CCOc1ccc(Nc2nc(-c3ccc(O)cc3)cc(-c3ccc(O)cc3)n2)cc1,4.7,1.6,–,–,–,–
2.2,Active,COc1ccc(-c2cc(-c3ccc(OC)cc3)nc(Nc3ccc(NC(=O)CN4CCCC4)cc3)n2)cc1,2.5,1.9,Active,inactive,–,–
4.1,–,COc1ccc(-c2cc(-c3ccc(O)cc3)nc(Nc3ccc(NC(=O)CN4CCN(C)CC4)cc3)n2)cc1,4.7,4.2,–,–,–,–
32.4,–,COc1ccc(-c2cc(-c3ccc(OC)cc3)nc(Nc3ccc(OCCN4CCCCC4)cc3)n2)cc1,5.4,1.9,–,–,–,–
5.2,–,CN1CCN(CC(=O)Nc2ccc(Nc3nc(-c4ccc(O)cc4)cc(-c4ccc(O)cc4)n3)cc2)CC1,6.8,4.9,–,–,–,–
> 100,–,COc1ccc(-c2cc(-c3ccc(O)cc3)nc(Nc3ccc(NC(=O)CN4CCCCC4)cc3)n2)cc1,10.6,1.4,–,–,–,–
6.1,–,Oc1ccc(-c2cc(-c3ccc(O)cc3)nc(Nc3ccc(OCCN4CCCCC4)cc3)n2)cc1,4.6,5,–,–,–,–
17.1,–,COc1ccc(-c2cc(-c3ccc(O)cc3)nc(Nc3ccc(OCCN4CCCCC4)cc3)n2)cc1,4.5,4.8,–,–,–,–
2.6,–,COc1ccc(-c2cc(-c3ccc(OC)cc3)nc(Nc3ccc(OCCN4CCCC4)cc3)n2)cc1,2.1,3.9,–,–,–,–
5.6,–,CCN(CC)CCOc1ccc(Nc2nc(-c3ccc(O)cc3)cc(-c3ccc(OC)cc3)n2)cc1,3.5,6.4,–,–,–,–
3.4,–,COc1ccc(-c2cc(-c3ccc(O)cc3)nc(Nc3ccc(NC(=O)CN(C)C)cc3)n2)cc1,3.8,6.3,–,–,–,–
–,–,CC/C(=C(\c1ccccc1)c1ccc(OCCN(C)C)cc1)c1ccccc1 [TAMOXIFEN],–,–,–,inactive,Toxic,Active
–,–,Oc1ccc(-c2cc(-c3ccc(O)cc3)nc(Nc3ccc(OCCN4CCOCC4)cc3)n2)cc1,74.9,–,–,–,–,–
49,–,CCN(CC)CC(=O)Nc1ccc(Nc2nc(-c3ccc(O)cc3)cc(-c3ccc(OC)cc3)n2)cc1,22,16.4,–,–,–,–
19.2,–,COc1ccc(-c2cc(-c3ccc(O)cc3)nc(Nc3ccc(NC(=O)CN4CCOCC4)cc3)n2)cc1,10.2,42.2,–,–,–,–

IC50 (MCF7 [1]) [µM],inhibition [4],Compound,IC50 (HUVEC) [µM],IC50 (Ishikawa [2]) [µM],Activity (Chorioallantoic membrane),Activity (MCF7 [3]),Activity (Ishikawa [5]),Activity (Ishikawa [6])
19.7,–,O=C(CN1CCCC1)Nc1ccc(Nc2nc(-c3ccc(O)cc3)cc(-c3ccc(O)cc3)n2)cc1,7,8.3,–,–,–,–
4.8,–,COc1ccc(-c2cc(-c3ccc(O)cc3)nc(Nc3ccc(OCCN4CCN(C)CC4)cc3)n2)cc1,2.4,5.3,–,–,–,–
5,–,CCN(CC)CCOc1ccc(Nc2nc(-c3ccc(OC)cc3)cc(-c3ccc(OC)cc3)n2)cc1,2.2,4.3,–,–,–,–
4.5,–,COc1ccc(-c2cc(-c3ccc(O)cc3)nc(Nc3ccc(NC(=O)CN4CCCC4)cc3)n2)cc1,2.3,5.5,–,–,–,–
57,–,Oc1ccc(-c2cc(-c3ccc(O)cc3)nc(Nc3ccc(OCCN4CCCC4)cc3)n2)cc1,4.7,4.5,–,–,–,–
3.6,–,COc1ccc(-c2cc(-c3ccc(O)cc3)nc(Nc3ccc(OCCN(C)C)cc3)n2)cc1,4.7,5.2,–,–,–,–
4.2,–,COc1ccc(-c2cc(-c3ccc(OC)cc3)nc(Nc3ccc(OCCN4CCN(C)CC4)cc3)n2)cc1,3,5.7,–,–,–,–
1.8,–,COc1ccc(-c2cc(-c3ccc(OC)cc3)nc(Nc3ccc(NC(=O)CN4CCN(C)CC4)cc3)n2)cc1,5,5.7,–,–,–,–
33.1,–,COc1ccc(-c2cc(-c3ccc(OC)cc3)nc(Nc3ccc(NC(=O)CN4CCOCC4)cc3)n2)cc1,–,–,–,–,–,–
27,–,CCN(CC)CC(=O)Nc1ccc(Nc2nc(-c3ccc(O)cc3)cc(-c3ccc(O)cc3)n2)cc1,19,17.3,–,–,–,–
39.5,–,CN(C)CC(=O)Nc1ccc(Nc2nc(-c3ccc(O)cc3)cc(-c3ccc(O)cc3)n2)cc1,60.6,8,–,–,–,–
26.4,–,O=C(CN1CCCCC1)Nc1ccc(Nc2nc(-c3ccc(O)cc3)cc(-c3ccc(O)cc3)n2)cc1,7.4,13.5,–,–,–,–
4.6,–,COc1ccc(-c2cc(-c3ccc(O)cc3)nc(Nc3ccc(OCCN4CCCC4)cc3)n2)cc1,3.1,5.9,–,–,–,–
3.6,–,COc1ccc(-c2cc(-c3ccc(OC)cc3)nc(Nc3ccc(OCCN(C)C)cc3)n2)cc1,4.6,5.1,–,–,–,–
2.5,–,COc1ccc(-c2cc(-c3ccc(OC)cc3)nc(Nc3ccc(NC(=O)CN(C)C)cc3)n2)cc1,2.8,3.6,–,–,–,–
15.6,–,O=C(CN1CCOCC1)Nc1ccc(Nc2nc(-c3ccc(O)cc3)cc(-c3ccc(O)cc3)n2)cc1,47,60.4,–,–,–,–
5.2,–,CN1CCN(CCOc2ccc(Nc3nc(-c4ccc(O)cc4)cc(-c4ccc(O)cc4)n3)cc2)CC1,2.5,5.4,–,–,–,–
